Laboratory results as given in PubChem BioAssay AID643 (Vanderbilt High Throughput Screening Facility, 2007).
Activity calls are given as the source filed them. The rule behind the calls is not given here.

Biological target: Muscarinic acetylcholine receptor M4 (Mus musculus) (UniProt P32211)
Experiment: allosteric agonists of mouse M4 receptor, confirmation, cell-based (AID 643)
Details: HEK293 cells expressing M4, thallium flux fluorescence, 2 min; active compounds read high

Muscarinic acetylcholine receptor M4 (Mus musculus), sequence (P32211 whole entry, looked up): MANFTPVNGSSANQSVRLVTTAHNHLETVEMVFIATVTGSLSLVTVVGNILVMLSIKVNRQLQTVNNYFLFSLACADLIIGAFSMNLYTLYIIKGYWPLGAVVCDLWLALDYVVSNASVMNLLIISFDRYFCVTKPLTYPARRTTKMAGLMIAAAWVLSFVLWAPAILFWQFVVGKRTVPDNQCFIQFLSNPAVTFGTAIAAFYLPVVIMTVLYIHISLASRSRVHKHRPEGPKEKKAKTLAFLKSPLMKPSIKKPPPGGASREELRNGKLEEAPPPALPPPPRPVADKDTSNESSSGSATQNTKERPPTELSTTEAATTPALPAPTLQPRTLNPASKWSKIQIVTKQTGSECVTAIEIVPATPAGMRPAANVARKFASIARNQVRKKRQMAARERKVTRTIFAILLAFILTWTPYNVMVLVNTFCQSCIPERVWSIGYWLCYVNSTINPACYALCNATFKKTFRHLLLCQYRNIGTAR

Structure (SMILES) | response slope
Cc1cccc2sc(NC(=O)Cn3cccc3)nc12 | 0.0102
O=c1c2ccccc2nc(-c2cccc(Cl)c2)n1O | 0.00746
O=C(Nc1nc(=O)c2ccccc2s1)c1ccccc1 | 0.00981
Cc1ccc(Cl)cc1N1CCN(C(=O)CN2C(=O)c3cccc4cccc2c34)CC1 | 0.00517 (inactive)
C[C@H]1OC[C@@H](C[N+](C)(C)C)O1 | 0.0167
Cc1c2ccncc2c(C)c2c1[nH]c1ccccc12 | 0.0125
O=C(O)c1cc(O)c2c(c1)C(=O)c1cccc(O)c1C2=O | 0.00514 (inactive)
CCN(CC)C(=O)c1sc2nc(-c3cccs3)cc(-c3cccs3)c2c1N | -0.000749 (inactive)
C/C(CC1(O)C(=O)N(Cc2ccccc2)c2ccccc21)=N\O (stereo not given) | 0.00834
CCn1c(SC(C)C(=O)O)nc2sc3c(c2c1=O)CCC3 (stereo not given) | 0.0132
CCCCNC(=O)Nc1ccnn1C1CCCCC1 | 0.00873
Cc1ccc(S(=O)(=O)/C(C#N)=C/c2c(N3CCN(C)CC3)nc3c(C)cccn3c2=O)cc1 | 0.00236 (inactive)
Cc1ccc(SCc2c(C#N)c3ccccc3n2C)cc1 | 0.00835
COc1ccc(-c2noc(CSc3nc4ccccc4c(=O)n3-c3ccccc3)n2)cc1OC | 0.00773
Cc1ccccc1-n1nc(C)c2cc(C(=O)NCc3cccnc3)sc21 | 0.00964
Cc1csc(NC(=O)c2sc3nc(-c4cccs4)ccc3c2N)n1 | 0.00327 (inactive)
Cc1c(C#N)sc2nc(-c3ccccc3)nc(N3CCCC3)c12 | 0.0119
COc1cc(/C=C/C(=O)CC(=O)/C=C/c2ccc(O)c(OC)c2)ccc1O | 0.00973
CCOC(=O)CC(=O)CSc1nc(-c2cccnc2)ccc1C#N | 0.00405 (inactive)
CCOC(=O)C1=C[C@]2(CC)CCCN3CCc4c(n1c1ccccc41)[C@@H]32 | 0.00841
CCCCCCc1cc2cc(-c3nnc(-c4ccccc4O)o3)c(=O)oc2cc1O | 0.0548
Fc1cccc2sc(Nc3nnc(-c4ccco4)o3)nc12 | 0.0206
COc1ccc(CCn2c(=N)c(C(=O)NCc3ccco3)cc3c(=O)n4ccccc4nc32)cc1 | 0.000825 (inactive)

Structure (SMILES) | response slope
CN(C)C(CNC(=O)Nc1cccc(Cl)c1)c1cccnc1 (stereo not given) | 0.00144 (inactive)
CCOC(=O)c1cnn2c1[nH]c(=O)c1ccccc12 | 0.00865
CN(C)c1ccc(/C=C/C(O)=C2/C(=O)N(C)C3(C)CC2c2ccccc2O3)cc1 (stereo not given) | 0.00464 (inactive)
CNS(=O)(=O)c1cccc(C(=O)OCC(=O)c2cc(C)n(-c3ccc4c(c3)OCO4)c2C)c1 | 0.00508 (inactive)
CC(=O)OC(C)C[N+](C)(C)C (stereo not given) | 0.00597 (inactive)
O=c1oc2c3c4c(cc2c(C(F)(F)F)c1CCN1CCOCC1)CCCN4CCC3 | 0.0204
CCOc1ccc(-n2c(O)c(C=Nc3ccc(N(CC)CC)cc3)c(=O)[nH]c2=O)cc1 | -0.00673 (inactive)
O=C(Nc1nc(-c2ccc(S(=O)(=O)N3CCCC3)cc2)cs1)C1COc2ccccc2O1 (stereo not given) | 0.00604 (inactive)
COc1cc(OC)cc(-c2nnc(Nc3nc4c(F)cccc4s3)o2)c1 | 0.0119
Clc1ccccc1OCCCCn1ccnc1 | 0.00392 (inactive)
Cc1ccc(-c2nn(-c3ccccc3)cc2/C=C(\C#N)c2cccc(C#N)c2)o1 | 0.0107
O=C(Nc1nc(-c2ccc(S(=O)(=O)N3CCCCCC3)cc2)cs1)c1cccs1 | 0.0142
Cc1ccc(CNC(=O)c2cc3c(=O)n4ccccc4nc3n(CC3CCCO3)c2=N)cc1 (stereo not given) | 0.00307 (inactive)
CCOC(=O)c1cc(-c2nnc(-c3ccc(Oc4ccccc4)cc3)o2)c(C)nc1C | 0.0113
CCN(CC)c1ccc2cc(-c3nc4ccccc4[nH]3)c(=O)oc2c1 | 0.0191
N#Cc1c(NC(=O)c2ccc(Br)o2)n(-c2ccccc2)c2nc3ccccc3nc12 | 0.00921
CC(=O)c1c(C)c2c(n1CCN(C)C)CCCC2 | 0.00747
Cc1nn(-c2ccc(Cl)cc2)c2sc(C(=O)N3CCN(c4ccccn4)CC3)cc12 | 0.00468 (inactive)
CCc1cccc(NC(=O)Cn2cc3c(n2)CCCC3)c1 | 0.00695 (inactive)
CCOc1ccccc1OCCCCN1CCCC1 | 0.0043 (inactive)
S=c1nc(C2CC2)[nH]c2ccccc12 | -0.00904 (inactive)
CCCCN(CCCC)c1nc2ccccc2nc1C(C#N)C(=O)NCCCOC (stereo not given) | 0.00562 (inactive)
